In article PMC9609924, “In Vitro Characterization of Inhibitors for Lung A549 and Leukemia K562 Cell Lines from Fungal Transformation of Arecoline Supported by In Silico Docking to M3-mAChR and ADME Prediction” (Pharmaceuticals, 2022):
Structures can show the parent of a compound that is named as a salt. Where two headings read alike, the source gives them in different places.

What was measured:
[1] = test system: leukemia K562 cell line; experiment: MTT cytotoxicity assay, leukemia K562; details: Homo sapiens, K562, 48 h, read-out: Cytotoxicity IC50 ± SD, Leukemia Cancer Cell K562
Experimental: (§1) Cell lines were obtained from the American Type Culture Collection (ATCC). Cells were cultured using Dulbecco’s Modified Eagle’s Medium (DMEM) (Invitrogen/Life Technologies, Waltham, MA, USA) supplemented with 10% fetal bovine serum (FBS, Hyclone, Logan, UT, USA), 10 µg/mL of insulin (Sigma Aldrich, St. Louis, MO, USA) and 1% mixture of penicillin and streptomycin. After incubation for 48 h with the isolated compounds, the viability of cells was measured using an MTT assay to determine the toxic concentration for each compound using the microplate reader according to the published procedures.

[2] = test system: non-small-cell lung cancer A549 cell line; experiment: cells; details: Homo sapiens, A549, 48 h, read-out: Cytotoxicity IC50 ± SD, Non-Small-Cell Lung Cancer A549
Experimental: as §1

[3] = test system: normal lung cell WI38; experiment: MTT cytotoxicity assay, normal lung cell WI38; assay type: cell-based; details: for IC50: Homo sapiens, read-out: Normal Lung Cell Line WI38 IC50 ± SD
Experimental: (§2) The selectivity index identifies the selectivity of the tested compounds toward the cancer cell line and is calculated by dividing the IC50 against the normal cell line by the IC50 against the cancer cells.

[4] = test system: normal blood cell PCS-800-016; experiment: MTT cytotoxicity assay, normal blood cell PCS-800-016; assay type: cell-based; details: for IC50: read-out: Normal Blood Cell PCS-800-016 IC50 ± SD
Experimental: as §2

[5] = test system: leukemia cancer K562 cells; experiment: Flow cytometry of DNA content, cell cycle distribution, K562; assay type: cell-based, human; details: for %Pre-G1 (sub-G1) cells, cell cycle distribution: untreated control 1.68%; for %G2/M cells, cell cycle distribution: untreated control 12.59%; for %S cells, cell cycle distribution: untreated control 42.57%; for %G0-G1 cells, cell cycle distribution: untreated control 44.84%
Experimental: (§3) For cell cycle analysis, a propidium iodide flow cytometry kit (ab139418, Abcam, Cambridge, UK) was used. For apoptosis, we used an annexin V apoptosis kit, which is composed of annexin V-FITC (fluorescein isothiocyanate), 1X binding buffer, and propidium iodide. Detection was conducted by measuring DNA content using a flow cytometer.

[6] = test system: leukemia cancer K562 cells; experiment: Annexin V-FITC/propidium iodide apoptosis detection, K562; assay type: cell-based, human; details: for Late apoptosis: untreated control 0.04%; for Early apoptosis: untreated control 0.37%; for Necrosis: untreated control 1.27%; for Total cell death: untreated control 1.68%
Experimental: as §3

[7] = test system: non-small-cell lung cancer A549 cells; experiment: Flow cytometry of DNA content, cell cycle distribution, A549; assay type: cell-based
Experimental: (§4) Furthermore, compound 1 induced early and late apoptosis and necrosis (5.09%, 10.38%, and 13.14%, respectively) compared to the untreated cells (0.29%, 0.18%, and 0.79, respectively).
as §3

[8] = test system: non-small-cell lung cancer A549 cells; experiment: Annexin V-FITC/propidium iodide apoptosis detection, A549; assay type: cell-based
Experimental: as §4, §3

SMILES: CN[C@@H]1C[C@H]2O[C@@](C)([C@@H]1OC)n1c3ccccc3c3c4c(c5c6ccccc6n2c5c31)C(=O)NC4 [Staurosporine, reference compound]
- IC50 [1]: 5.07 ± 0.36 µM

SMILES: O=C(O)C1CCCNC1 [Compound 3, D-piperidine-3-carboxylic acid]
- IC50 [2]: 7.33 ± 0.45 µM
- IC50 [1]: 3.33 ± 0.24 µM
- IC50 ([3]; WI-38, 48 h): 26.6 ± 1.33 µM
- IC50 ([4]; 48 h): 37.9 ± 1.89 µM
- Phase of cell cycle arrest [5]: S phase
- %Pre-G1 (sub-G1) cells, cell cycle distribution [5]: 43.22%
- %G2/M cells, cell cycle distribution [5]: 7.48%
- %S cells, cell cycle distribution [5]: 57.23%
- %G0-G1 cells, cell cycle distribution [5]: 35.29%
- Late apoptosis [6]: 30.35%
- Early apoptosis [6]: 2.33%
- Necrosis [6]: 10.54%
- Total cell death [6]: 43.22%

SMILES: CN1CCC(O)CC1 [Compound 1, 1-Methylpiperidin-4-ol]
- IC50 [2]: 3.08 ± 0.19 µM
- IC50 [1]: 1.56 ± 0.11 µM
- IC50 ([3]; WI-38, MTT, 48 h incubation): 18.3 ± 0.91 µM
- SI (Lung), selectivity index ([3]; IC50 against normal WI38 divided by IC50 against A549): 5.93
- SI (Blood Cell), selectivity index ([4]; IC50 against normal PCS-800-016 divided by IC50 against K562): 6.32
- IC50 ([4]; MTT, 48 h incubation): 9.87 ± 0.49 µM
- Phase of cell cycle arrest [7]: G2/M phase
- %Pre-G1 (sub-G1) cells, cell cycle distribution ([7]; untreated control 1.26%): 28.61%
- %G2/M cells, cell cycle distribution ([7]; untreated control 8.09%): 24.88%
- %S cells, cell cycle distribution ([7]; untreated control 35.85%): 31.01%
- %G0-G1 cells, cell cycle distribution ([7]; untreated control 56.06%): 44.11%
- Fold increase of early apoptosis than control ([8]; A549, versus untreated cells): 17.55 fold
- Fold increase of late apoptosis than control ([8]; A549, versus untreated cells): 57.67 fold
- Fold increase of necrosis than control ([8]; A549, versus untreated cells): 16.63 fold
- Fold increase of total cell death than control ([8]; A549, versus untreated cells): 22.71 fold
- Late apoptosis ([8]; A549, untreated control 0.18%): 10.38%
- Early apoptosis ([8]; A549, untreated control 0.29%): 5.09%
- Necrosis ([8]; A549, untreated control 0.79%): 13.14%
- Total cell death ([8]; A549, untreated control 1.26%): 28.61%

SMILES: O=C(O)c1cccnc1 [Compound 5, Pyridine-3-carboxylic acid]
- IC50 [2]: 3.29 ± 0.2 µM
- IC50 [1]: 2.15 ± 0.15 µM
- IC50 ([3]; WI-38, MTT, 48 h incubation): 13.9 ± 0.69 µM
- IC50 ([4]; MTT, 48 h incubation): 20.2 ± 1.01 µM
- Phase of cell cycle arrest [5]: S phase
- %Pre-G1 (sub-G1) cells, cell cycle distribution [5]: 31.74%
- %G2/M cells, cell cycle distribution [5]: 10.68%
- %S cells, cell cycle distribution [5]: 52.91%
- %G0-G1 cells, cell cycle distribution [5]: 36.41%
- Late apoptosis [6]: 11.74%
- Early apoptosis [6]: 2.94%
- Necrosis [6]: 17.06%
- Total cell death [6]: 31.74%

SMILES: COc1cccc2c1C(=O)c1c(O)c3c(c(O)c1C2=O)C[C@@](O)(C(=O)CO)C[C@@H]3O[C@H]1C[C@H](N)[C@H](O)[C@H](C)O1 [Doxorubicin, reference compound]
- IC50 [2]: 5.05 ± 0.13 µM
- IC50 [1]: 6.94 ± 0.21 µM

SMILES: COC(=O)C1=CCCN(C)C1 [Arecoline hydrobromide, reference compound]
- IC50 [2]: 11.7 ± 0.71 µM
- IC50 [1]: 15.3 ± 1.08 µM

SMILES: C[N+]1([O-])CCC(O)CC1 (stereo not drawn) [Compound 2, 4-Hydroxy-1-methylpiperidine 1-oxide]
- IC50 [2]: > 100 µM
- IC50 [1]: > 100 µM

SMILES: CN1CCC=C(C(=O)O)C1 [Compound 4, 1-Methyl-1,2,5,6-tetrahydropyridine-3-carboxylic acid]
- IC50 [2]: 90.9 ± 0.59 µM
- IC50 [1]: 67.3 ± 0.53 µM
